Assay results as given in US10329294B2, “Pyrazolopyrimidine inhibitors of IRAK4 activity” (MERCK SHARP & DOHME CORP., priority 2015, dated 2019).
Where a name gives a salt, the structure may show the parent alone.

target: IRAK4 (Homo sapiens (Human), UniProt Q9NWZ3); test: IRAK4 Kinase Assay; format: biochemical; conditions: IMAP fluorescence polarization, 0.5 nM GST tagged IRAK4, 100 μM ATP, 30 minutes at 25° C.; read-out: IRAK4 IC50
Sequence (Q9NWZ3 whole entry): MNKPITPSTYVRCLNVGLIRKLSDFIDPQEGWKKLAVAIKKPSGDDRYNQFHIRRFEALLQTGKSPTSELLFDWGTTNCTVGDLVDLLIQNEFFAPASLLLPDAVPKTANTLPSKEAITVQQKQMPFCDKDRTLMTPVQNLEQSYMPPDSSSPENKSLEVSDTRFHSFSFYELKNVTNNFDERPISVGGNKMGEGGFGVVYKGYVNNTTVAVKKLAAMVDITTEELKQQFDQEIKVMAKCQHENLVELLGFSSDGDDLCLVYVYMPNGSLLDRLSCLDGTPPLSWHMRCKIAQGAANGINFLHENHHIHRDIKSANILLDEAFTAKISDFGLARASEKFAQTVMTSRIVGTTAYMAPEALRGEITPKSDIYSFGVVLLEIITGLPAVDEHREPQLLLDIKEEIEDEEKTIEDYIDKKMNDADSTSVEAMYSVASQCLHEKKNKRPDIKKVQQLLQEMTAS

Row | Structure (SMILES) | IC50
1 | Cn1cc(NC(=O)c2cnn3ccc(N[C@H]4CNC[C@H](F)C4)nc23)c(C(F)F)n1 [Example 261, N-[3-(difluoromethyl)-1-methyl-1H-pyrazol-4-yl]-5-{[(3R,5R)-5-fluoropiperidin-3-yl]amino}pyrazolo[1,5-a]pyrimidine-3-carboxamide trifluoroacetate] | 0.5 nM
2 | N#Cc1sccc1NC(=O)c1cnn2ccc(N3CC4CCC3CN4)nc12 (centres unmarked) [Example 110, N-(2-cyanothiophen-3-yl)-5-(2,5-diazabicyclo[2.2.2]oct-2-yl)pyrazolo[1,5-a]pyrimidine-3-carboxamide trifluoroacetate] | 193 nM
3 | CC(C)n1cc(NC(=O)c2cnn3ccc(N4CC5CCC4CN5)nc23)c(C(F)(F)F)n1 (centres unmarked) [Example 53, 5-(2,5-diazabicyclo[2.2.2]oct-2-yl)-N-[1-(1-methylethyl)-3-(trifluoromethyl)-1H-pyrazol-4-yl]pyrazolo[1,5-a]pyrimidine-3-carboxamide] | 48 nM
4 | Cn1cc(NC(=O)c2cnn3ccc(N4CC5CC(C4)N5)nc23)c(C(F)(F)F)n1 [Example 19, 5-(3,6-diazabicyclo[3.1.1]hept-3-yl)-N-[1-methyl-3-(trifluoromethyl)-1H-pyrazol-4-yl]pyrazolo[1,5-a]pyrimidine-3-carboxamide trifluoroacetate] | 389 nM
5 | N[C@H]1CCCC[C@H]1Nc1ccn2ncc(C(=O)Nc3ccsc3Br)c2n1 [Example 129, 5-{[(1R,2S)-2-aminocyclohexyl]amino}-N-(2-bromothiophen-3-yl)pyrazolo[1,5-a]pyrimidine-3-carboxamide trifluoroacetate] | 2 nM
6 | Cn1cc(NC(=O)c2cnn3ccc(N4[C@@H]5CCNC[C@H]4CC5)nc23)c(C(F)(F)F)n1 (single isomer, unassigned) [Example 221, 5-[(1R,6S)- or (1S,6R)-3,9-diazabicyclo[4.2.1]non-9-yl]-N-[1-methyl-3-(trifluoromethyl)-1H-pyrazol-4-yl]pyrazolo[1,5-a]pyrimidine-3-carboxamide trifluoroacetate] | 330 nM
7 | Cn1cc(NC(=O)c2cnn3ccc(N4C[C@H](O)C[C@@H](O)C4)nc23)c(C(F)F)n1 [Example 24, N-[3-(difluoromethyl)-1-methyl-1H-pyrazol-4-yl]-5-[(3R,5R)-3,5-dihydroxypiperidin-1-yl]pyrazolo[1,5-a]pyrimidine-3-carboxamide] | 4 nM
8 | Cn1cc(NC(=O)c2cnn3ccc(N[C@@H]4CCCC(F)(F)[C@@H]4N)nc23)c(Cl)n1 [Example 150, 5-{[(1R,2R)-2-amino-3,3-difluorocyclohexyl]amino}-N-(3-chloro-1-methyl-1H-pyrazol-4-yl)pyrazolo[1,5-a]pyrimidine-3-carboxamide] | 109 nM
9 | Cc1nc(-c2nn(C)cc2NC(=O)c2cnn3ccc(N[C@@H]4CCCC[C@@H]4N)nc23)no1 [Example 288, 5-{[(1R,2S)-2-aminocyclohexyl]amino}-N-[1-methyl-3-(5-methyl-1,2,4-oxadiazol-3-yl)-1H-pyrazol-4-yl]pyrazolo[1,5-a]pyrimidine-3-carboxamide] | 10 nM
10 | Cn1cc(NC(=O)c2cnn3ccc(N4CC5CNCC4C5)nc23)c(C(F)(F)F)n1 (centres unmarked) [Example 82, 5-(3,6-diazabicyclo[3.2.1]oct-6-yl)-N-[1-methyl-3-(trifluoromethyl)-1H-pyrazol-4-yl]pyrazolo[1,5-a]pyrimidine-3-carboxamide trifluoroacetate] | 114 nM
11 | N[C@@H]1[C@H](Nc2ccn3ncc(C(=O)Nc4ccccc4C(F)(F)F)c3n2)CCCC1(F)F [Example 114, 5-{[(1R,2R)-2-amino-3,3-difluorocyclohexyl]amino}-N-[2-(trifluoromethyl)phenyl] pyrazolo[1,5-a]pyrimidine-3-carboxamide trifluoroacetate] | 3820 nM

Now from value to compound:

Row | IC50 | Structure (SMILES)
12 | 19 nM | Cn1cc(NC(=O)c2cnn3ccc(N4C[C@H]5CC[C@@H]4CN5)nc23)c(Br)n1 (single isomer, unassigned) [Example 165, N-(3-bromo-1-methyl-1H-pyrazol-4-yl)-5-[(1S,4S)- or (1R,4R)-2,5-diazabicyclo[2.2.2]oct-2-yl]pyrazolo[1,5-a]pyrimidine-3-carboxamide trifluoroacetate]
13 | 789 nM | Cn1cc(NC(=O)c2cnn3ccc(N4CCNCCC45CC5)nc23)c(C(F)(F)F)n1 [Example 95, 5-(4,7-diazaspiro[2.6]non-4-yl)-N-[1-methyl-3-(trifluoromethyl)-1H-pyrazol-4-yl]pyrazolo[1,5-a]pyrimidine-3-carboxamide trifluoroacetate]
14 | 267 nM | O=C(Nc1cn(CC(F)(F)F)nc1C(F)(F)F)c1cnn2ccc(N3CC4CCC3CN4)nc12 (centres unmarked) [Example 58, 5-(2,5-diazabicyclo[2.2.2]oct-2-yl)-N-[1-(2,2,2-trifluoroethyl)-3-(trifluoromethyl)-1H-pyrazol-4-yl]pyrazolo[1,5-a]pyrimidine-3-carboxamide trifluoroacetate]
15 | 589 nM | CN1CCN(c2ccn3ncc(C(=O)Nc4cn(C)nc4C(F)(F)F)c3n2)C(C)(C)C1 [Example 35, N-[1-methyl-3-(trifluoromethyl)-1H-pyrazol-4-yl]-5-(2,2,4-trimethylpiperazin-1-yl)pyrazolo[1,5-a]pyrimidine-3-carboxamide trifluoroacetate]
16 | 524 nM | O=C(Nc1ccsc1Br)c1cnn2ccc(N3CC4CCC3CN4)nc12 (centres unmarked) [Example 142, N-(2-bromothiophen-3-yl)-5-(2,5-diazabicyclo[2.2.2]oct-2-yl)pyrazolo[1,5-a]pyrimidine-3-carboxamide trifluoroacetate]
17 | 149 nM | Cn1cc(NC(=O)c2cnn3ccc(N4CCNCC(F)C4)nc23)c(C(F)(F)F)n1 (centres unmarked) [Example 27, 5-(6-fluoro-1,4-diazepan-1-yl)-N-[1-methyl-3-(trifluoromethyl)-1H-pyrazol-4-yl]pyrazolo[1,5-a]pyrimidine-3-carboxamide trifluoroacetate]
18 | 383 nM | O=C(Nc1cscc1Cl)c1cnn2ccc(N3C[C@H]4CC[C@@H]3CN4)nc12 (single isomer, unassigned) [Example 171, N-(4-chlorothiophen-3-yl)-5-[(1S,4S)- or (1R,4R)-2,5-diazabicyclo[2.2.2]oct-2-yl]pyrazolo[1,5-a]pyrimidine-3-carboxamide trifluoroacetate]
19 | 6 nM | Cn1cc(NC(=O)c2cnn3ccc(NC4CCCCNC4)nc23)c(C(F)(F)F)n1 (centres unmarked) [Example 12, 5-(azepan-3-ylamino)-N-[1-methyl-3-(trifluoromethyl)-1H-pyrazol-4-yl]pyrazolo[1,5-a]pyrimidine-3-carboxamide hydrochloride]
20 | 890 nM | CC(C)(C)n1cc(NC(=O)c2cnn3ccc(N[C@@H]4CCCC(F)(F)[C@@H]4N)nc23)c(C(F)(F)F)n1 [Example 49, 5-{[(1R,2R)-2-amino-3,3-difluorocyclohexyl]amino}-N-[1-tert-butyl-3-(trifluoromethyl)-1H-pyrazol-4-yl]pyrazolo[1,5-a]pyrimidine-3-carboxamide trifluoroacetate]
21 | 28 nM | Cn1cc(NC(=O)c2cnn3ccc(N4CC5CCC4CN5)nc23)c(C(F)(F)F)n1 (centres unmarked) [Example 11, 5-(2,5-diazabicyclo[2.2.2]oct-2-yl)-N-[1-methyl-3-(trifluoromethyl)-1H-pyrazol-4-yl]pyrazolo[1,5-a]pyrimidine-3-carboxamide hydrochloride]
22 | 59 nM | O=C(Nc1cn(CC(F)F)nc1C(F)(F)F)c1cnn2ccc(N3CC4CCC3CN4)nc12 (centres unmarked) [Example 65, 5-(2,5-diazabicyclo[2.2.2]oct-2-yl)-N-[1-(2,2-difluoroethyl)-3-(trifluoromethyl)-1H-pyrazol-4-yl]pyrazolo[1,5-a]pyrimidine-3-carboxamide trifluoroacetate]
23 | 2 nM | Cn1cc(NC(=O)c2cnn3ccc(N4CC5CCC4CN5)nc23)c(C(F)F)n1 (centres unmarked) [Example 96, 5-(2,5-diazabicyclo[2.2.2]oct-2-yl)-N-[3-(difluoromethyl)-1-methyl-1H-pyrazol-4-yl]pyrazolo[1,5-a]pyrimidine-3-carboxamide trifluoroacetate]
24 | 0.5 nM | Cn1cc(NC(=O)c2cnn3ccc(N[C@@H]4CCCCNC4)nc23)c(C(F)(F)F)n1 (single isomer, unassigned) [Example 160, 5-[(3S)- or (3R)-azepan-3-ylamino]-N-[1-methyl-3-(trifluoromethyl)-1H-pyrazol-4-yl]pyrazolo[1,5-a]pyrimidine-3-carboxamide trifluoroacetate]
25 | 39 nM | Cn1cc(NC(=O)c2cnn3ccc(NC4CCNCC4)nc23)c(C(F)(F)F)n1 [Example 7, N-[1-methyl-3-(trifluoromethyl)-1H-pyrazol-4-yl]-5-(piperidin-4-ylamino)pyrazolo[1,5-a]pyrimidine-3-carboxamide trifluoroacetate]
26 | 419 nM | O=C(Nc1ccsc1Br)c1cnn2ccc(N3CCCNCC3)nc12 [Example 127, N-(2-bromothiophen-3-yl)-5-(1,4-diazepan-1-yl)pyrazolo[1,5-a]pyrimidine-3-carboxamide trifluoroacetate]
27 | 3 nM | Cn1cc(NC(=O)c2cnn3ccc(N4C[C@@H]5CC[C@H]4CN5)nc23)c(C(F)F)n1 (single isomer, unassigned) [Example 158, 5-[(1S,4S)- or (1R,4R)-2,5-diazabicyclo[2.2.2]oct-2-yl]-N-[3-(difluoromethyl)-1-methyl-1H-pyrazol-4-yl]pyrazolo[1,5-a]pyrimidine-3-carboxamide trifluoroacetate]
28 | 0.5 nM | Cn1cc(NC(=O)c2cnn3ccc(N4CC[C@H](F)[C@H](N)C4)nc23)c(C(F)F)n1 (single isomer, unassigned) [Example 179, 5-[(3S,4R)- or (3R,4S)-3-amino-4-fluoropiperidin-1-yl]-N-[3-(difluoromethyl)-1-methyl-1H-pyrazol-4-yl]pyrazolo[1,5-a]pyrimidine-3-carboxamide trifluoroacetate]

same assay, conditions: IRAK4 IC50 (nM), IMAP fluorescence polarization, 0.5 nM GST tagged IRAK4, 100 μM ATP, 30 minutes at 25° C.

Row | Structure (SMILES) | IC50
29 | Cn1cc(NC(=O)c2cnn3ccc(N4CC5CNCC4COC5)nc23)c(C(F)(F)F)n1 (centres unmarked) [Example 212, 5-(3-Oxa-7,9-diazabicyclo[3.3.2]decan-9-yl)-N-(1-methyl-3-(trifluoromethyl)-1H-pyrazol-4-yl)pyrazolo[1,5-a]pyrimidine-3-carboxamide] | 9 nM
